Source: patent US11827917B1, “Methods for the conversion of fermentable sugars to ethanol” (Colorado State University Research Foundation, priority 2020, dated 2023)
“Also recorded” adds a separate entry of the source. Marks after values point to notes of the source that are not given here.

Legend:
Type in all cases: cell-based, Saccharomyces cerevisiae
S. cerevisiae JAY 270 [1] = assay: Screening of growth in 24-well plates on YPDA; settings: for Cell growth score (colony size): YPDA, 30° C., 24 h; for Effect on cell growth in the plate assay (words): tested concentrations, 24-well plates
Method: Procedure: An inoculum culture of S. cerevisiae JAY 270 was grown in 100 mL of yeast extract-peptone-dextrose (YPD) medium (10 g/L yeast extract, 20 g/L peptone, 20 g/L glucose) in 200-mL serum bottles overnight in a shaker at 30° C. and 200 rpm. The cells were collected by centrifuging 10 min at 4000×g and 4° C. To wash off the medium residue, the cell pellet was resuspended in 30 mL of sterile 0.8% (w/v) NaCl solution and centrifuged at 4000×g for 10 min. The cell pellet was washed twice. Finally, the cell pellet was resuspended and diluted in 0.8% (w/v) NaCl to achieve cell concentrations of OD600=0.02 and 0.2.
The eight compounds were added in YPDA separately at 0.03%, 0.05%, 0.1%, and 0.2% (w/v). The standard control treatment contained only YPDA medium without addition of these compounds. Since the TrpOH and TyrOH stock solutions were dissolved in DMSO, the controls for those tests were YPDA with the same concentration of DMSO. A 3-mL aliquot of YPDA medium with or without the test compounds were loaded in each well of the 24-well plate.
Ten μL of the prepared S. cerevisiae JAY 270 cell suspension at OD600=0.02 or 0.2 was loaded onto the YPDA medium in each well of the 24-well plates. Then the plates were sealed with Parafilm and incubated at 30° C. for 24 h. There were four biological replicates for each treatment.
Yeast cell growth was evaluated by visual observation of the colony size in the well and scored as 0, +, ++, and +++.

S. cerevisiae JAY 270 [2] = assay: Serum-bottle cultivation in YPD: biomass, glycerol, ethanol yields; settings: YPD, serum bottles
Method: Procedure: Cultivations in serum bottles were used to determine the effect of the best-performing screened chemicals on the ethanol yield. S. cerevisiae JAY 270 was pre-cultured in 100 mL of YPD medium in 200-mL serum bottles overnight in a shaker at 30° C. and 200 rpm. The precultured yeast cells were collected and washed twice as described above. The cell pellet was resuspended in about 10 mL of 0.8% (w/v) NaCl and the cell concentration was estimated as OD600. TyrOH, PheOH, and TrpOH were added to 30 mL of YPD medium in 100-mL serum bottles at 0.05% and 0.2% respectively. The same amount of DMSO was added to YPD medium to serve as the control for TrpOH and TyrOH treatments. The bottles were inoculated with the prepared yeast cells to obtain an initial cell concentration of OD600=0.2. The serum bottles were sealed and cultured in a shaker at 30° C. and 200 rpm for 24 h. Each condition had three biological replicates.
Analytical methods: Cell growth was evaluated by monitoring OD600 and cell dry mass concentration. For dry mass measurements, 1.0 mL of culture was transferred to a pre-dried and pre-weighed 2-mL centrifuge tube. The tubes were centrifuged for 10 min at 14000 rpm using a microcentrifuge, and then the cell pellets were dried in an oven for 3 days at 65° C. The cell dry mass was determined by subtracting the initial tube mass from the dried mass of tube with cells. The concentrations of glucose, ethanol, and glycerol were measured via HPLC (Shimadzu LC20A series) outfitted with a refractive index detector and using an Aminex HPX-87H (300×7.8 mm) organic acid column and Cation H+ guard cartridge (Bio Rad Laboratories, Hercules, CA). The column was maintained at 65° C. and the mobile phase was 5 mM sulfuric acid with a flow rate of 0.6 mL/min. Standard compound solutions were used to calibrate the HPLC. Each sample was analyzed three times by HPLC.

S. cerevisiae JAY 270 [3] = assay: Growth test in liquid YNB medium, low/high nitrogen, serum bottles; settings: 40, 200, 1000 mg/L; low and high nitrogen media
Method: A second set of tests was performed in a defined liquid medium, Yeast Nitrogen Base with Glucose (YNB), containing (NH4)2SO4 at either low (1 mM) or high (10 mM) nitrogen content. […] All serum bottles were incubated in a shaker at 30° C. and 150 RPM. Each treatment was performed in biological duplicate. Samples were collected at 0, 5, and 10 hours.

Nc1nc[nH]n1 [3-amino-1,2,4-triazole]
Cell growth score (colony size) (S. cerevisiae JAY 270 [1]; 0.03% (w/v)): +++
Cell growth score (colony size) (S. cerevisiae JAY 270 [1]; 0.05% (w/v)): +++
Cell growth score (colony size) (S. cerevisiae JAY 270 [1]; 0.10% (w/v)): +++
Cell growth score (colony size) (S. cerevisiae JAY 270 [1]; 0.20% (w/v)): +++
Effect on cell growth in the plate assay (words) (S. cerevisiae JAY 270 [1]): did not inhibit cell growth

OB(O)O [Boric acid, reference compound]
Biomass Yield (S. cerevisiae JAY 270 [2]; 0.05% (w/v)): 0.137 + 0.001 g/g
Biomass yield % change vs. control (S. cerevisiae JAY 270 [2]; 0.05% (w/v)): 0%
EtOH yield (S. cerevisiae JAY 270 [2]; 0.05% (w/v)): 0.41 ± 0.00 g/g
EtOH yield % change vs. control (S. cerevisiae JAY 270 [2]; 0.05% (w/v)): 0%
Glycerol yield (S. cerevisiae JAY 270 [2]; 0.05% (w/v)): 0.024 ± 0.001 g/g
Glycerol yield % change vs. control (S. cerevisiae JAY 270 [2]; 0.05% (w/v)): 0%
Biomass yield vs. reference (S. cerevisiae JAY 270 [2]; 0.05%): 0%
Ethanol yield (S. cerevisiae JAY 270 [2]; 0.05%): 0.41 ± 0.00 g/g
Ethanol yield vs. reference (S. cerevisiae JAY 270 [2]; 0.05%): 0%
Glycerol yield (S. cerevisiae JAY 270 [2]; 0.05%): 0.024 ± 0.001 g/g
Glycerol yield vs. reference (S. cerevisiae JAY 270 [2]; 0.05%): −6.3%
OD600 (S. cerevisiae JAY 270 [2]; 0.05%): 4.78
Effect on ethanol yield (S. cerevisiae JAY 270 [2]; 0.05 and 0.2%): did not affect ethanol yield
Biomass Yield (S. cerevisiae JAY 270 [2]; 0.2% (w/v)): 0.116 + 0.001 g/g
Biomass yield % change vs. control (S. cerevisiae JAY 270 [2]; 0.2% (w/v)): −15* %
EtOH yield (S. cerevisiae JAY 270 [2]; 0.2% (w/v)): 0.41 ± 0.00 g/g
EtOH yield % change vs. control (S. cerevisiae JAY 270 [2]; 0.2% (w/v)): 0%
Glycerol yield (S. cerevisiae JAY 270 [2]; 0.2% (w/v)): 0.027 ± 0.001 g/g
Glycerol yield % change vs. control (S. cerevisiae JAY 270 [2]; 0.2% (w/v)): 6.9%
Biomass yield vs. reference (S. cerevisiae JAY 270 [2]; 0.2%): −15.3%
Ethanol yield (S. cerevisiae JAY 270 [2]; 0.2%): 0.41 ± 0.00 g/g
Ethanol yield vs. reference (S. cerevisiae JAY 270 [2]; 0.2%): 0%
Glycerol yield (S. cerevisiae JAY 270 [2]; 0.2%): 0.027 ± 0.000 g/g
Glycerol yield vs. reference (S. cerevisiae JAY 270 [2]; 0.2%): 6.9%
OD600 (S. cerevisiae JAY 270 [2]; 0.2%): 3.96
Inhibitory effect on yeast cell growth in liquid YNB medium (S. cerevisiae JAY 270 [3]): little or no growth inhibition effects
Cell growth score (colony size) (S. cerevisiae JAY 270 [1]; 0.03% (w/v)): +++
Cell growth score (colony size) (S. cerevisiae JAY 270 [1]; 0.05% (w/v)): +++
Cell growth score (colony size) (S. cerevisiae JAY 270 [1]; 0.10% (w/v)): ++
Cell growth score (colony size) (S. cerevisiae JAY 270 [1]; 0.20% (w/v)): +
Effect on cell growth in the plate assay (words) (S. cerevisiae JAY 270 [1]): inhibited growth; also recorded: reduced the growth

C[C@@H]1C[C@@H]([C@H](O)CC2CC(=O)NC(=O)C2)C(=O)[C@@H](C)C1 [Cycloheximide, cycloheximide, reference compound]
Biomass yield % change vs. control (S. cerevisiae JAY 270 [2]; 0.1 mg/L): −12* %
Biomass yield vs. reference (S. cerevisiae JAY 270 [2]; 0.1 mg/L): −36.1%
Effect on ethanol yield (S. cerevisiae JAY 270 [2]; 0.1 mg/L): slight decrease of ethanol yield
EtOH yield (S. cerevisiae JAY 270 [2]; 0.1 mg/L): 0.42 ± 0.01 g/g
EtOH yield % change vs. control (S. cerevisiae JAY 270 [2]; 0.1 mg/L): −3.5%
Ethanol yield (S. cerevisiae JAY 270 [2]; 0.1 mg/L): 0.42 ± 0.01 g/g
Ethanol yield vs. reference (S. cerevisiae JAY 270 [2]; 0.1 mg/L): 0%
Glycerol yield % change vs. control (S. cerevisiae JAY 270 [2]; 0.1 mg/L): −48* %
Glycerol yield vs. reference (S. cerevisiae JAY 270 [2]; 0.1 mg/L): 0.4%
OD600 (S. cerevisiae JAY 270 [2]; 0.1 mg/L): 2.82
OD600 (S. cerevisiae JAY 270 [2]; 0.4 mg/L): 0.22
Cell growth score (colony size) (S. cerevisiae JAY 270 [1]; 0.03% (w/v)): 0
Cell growth score (colony size) (S. cerevisiae JAY 270 [1]; 0.05% (w/v)): 0
Cell growth score (colony size) (S. cerevisiae JAY 270 [1]; 0.10% (w/v)): 0
Cell growth score (colony size) (S. cerevisiae JAY 270 [1]; 0.20% (w/v)): 0
Effect on cell growth in the plate assay (words) (S. cerevisiae JAY 270 [1]): inhibited all cell growth at all tested concentrations
Effect on cell growth in the plate assay (words) (S. cerevisiae JAY 270 [1]; listed as cycloheximide): inhibited growth; also recorded: reduced the growth

CC(C)=CCCC(C)=CCCC(C)=CCO [Farnesol, farnesol]
Cell growth score (colony size) (S. cerevisiae JAY 270 [1]; 0.03% (w/v)): +++
Cell growth score (colony size) (S. cerevisiae JAY 270 [1]; 0.05% (w/v)): +++
Cell growth score (colony size) (S. cerevisiae JAY 270 [1]; 0.10% (w/v)): +++
Cell growth score (colony size) (S. cerevisiae JAY 270 [1]; 0.20% (w/v)): +++
Effect on cell growth in the plate assay (words) (S. cerevisiae JAY 270 [1]): did not inhibit cell growth

CP(=O)(O)CCC(N)C(=O)O (stereo not drawn) [Glufosinate ammonium, glufosinate ammonium]
Cell growth score (colony size) (S. cerevisiae JAY 270 [1]; 0.03% (w/v)): +++
Cell growth score (colony size) (S. cerevisiae JAY 270 [1]; 0.05% (w/v)): +++
Cell growth score (colony size) (S. cerevisiae JAY 270 [1]; 0.10% (w/v)): +++
Cell growth score (colony size) (S. cerevisiae JAY 270 [1]; 0.20% (w/v)): +++
Effect on cell growth in the plate assay (words) (S. cerevisiae JAY 270 [1]): did not inhibit cell growth
